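Dose response: 5 concentrations. Exposure: 48 h. Format: 96-well plates. Endpoint: linear interpolation; highest concentration if not reached. GI50 is the concentration that inhibits growth by half. The concentration for full growth arrest is given as TGI.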
Tests used:
Assay in all cases: DTP human tumour cell line panel, 48 h
[1] = test system: IGROV1 ovarian
[2] = test system: UACC-62 melanoma
[3] = test system: K-562 leukemia
[4] = test system: MOLT-4 leukemia
[5] = test system: UACC-257 melanoma
[6] = test system: BT-549 breast
[7] = test system: HT29 colon
[8] = test system: A549 NSCLC
[9] = test system: NCI/ADR-RES ovarian
[10] = test system: ACHN renal
[11] = test system: NCI-H226 lung
[12] = test system: OVCAR-4 ovarian
[13] = test system: T-47D breast
[14] = test system: RPMI-8226 leukemia
[15] = test system: PC-3 prostate
[16] = test system: HCC-2998 colon
[17] = test system: SF-295 CNS
[18] = test system: MDA-MB-231 breast
[19] = test system: 786-0 renal
[20] = test system: SNB-19 CNS
[21] = test system: HS 578T breast
[22] = test system: M14 melanoma
[23] = test system: UO-31 renal
[24] = test system: NCI-H23 lung
[25] = test system: OVCAR-8 ovarian
[26] = test system: SN12C renal
[27] = test system: MALME-3M melanoma
[28] = test system: U251 CNS
[29] = test system: KM12 colon
[30] = test system: TK-10 renal
[31] = test system: DU-145 prostate
[32] = test system: EKVX NSCLC
[33] = test system: RXF 393 renal
[34] = test system: HCT-116 colon
[35] = test system: CAKI-1 renal
[36] = test system: HCT-15 colon
[37] = test system: MDA-MB-435
[38] = test system: OVCAR-3 ovarian
[39] = test system: HOP-62 NSCLC
[40] = test system: SK-OV-3 ovarian
[41] = test system: COLO 205 colon
[42] = test system: SNB-75 CNS
[43] = test system: HOP-92 NSCLC
[44] = test system: OVCAR-5 ovarian
[45] = test system: NCI-H522 lung
[46] = test system: A498 renal
[47] = test system: SK-MEL-2 melanoma
[48] = test system: SF-268 CNS
[49] = test system: SR leukemia
[50] = test system: SK-MEL-5 melanoma
[51] = test system: NCI-H460 lung
[52] = test system: MCF7 breast
[53] = test system: HL-60(TB) leukemia
[54] = test system: SW-620 colon
[55] = test system: SK-MEL-28 melanoma
[56] = test system: CCRF-CEM leukemia
[57] = test system: SF-539 CNS

CCN(CC)CCOc1ccc(/C=C2\CC3C4CC=C5C[C@@H](OC(C)=O)CC[C@]5(C)C4CC[C@]3(C)C2=O)cc1OC (some centres not stated)
GI50 [1]: 4.65 µM
TGI [1]: 16.4 µM
GI50 [2]: 2.2 µM
TGI [2]: 4.09 µM
GI50 [3]: 1.29 µM
TGI [3]: 23.6 µM
GI50 [4]: 1.45 µM
TGI [4]: > 100 µM
GI50 [5]: 6.97 µM
TGI [5]: 31.6 µM
GI50 [6]: 11.4 µM
TGI [6]: 33 µM
GI50 [7]: 4.07 µM
TGI [7]: > 100 µM
GI50 [8]: 17.7 µM
TGI [8]: 44.9 µM
GI50 [9]: 5.08 µM
TGI [9]: > 100 µM
GI50 [10]: 9.84 µM
TGI [10]: 21.5 µM
GI50 [11]: 13.3 µM
TGI [11]: 35.9 µM
GI50 [12]: 20.9 µM
TGI [12]: > 100 µM
GI50 [13]: 38.2 µM
TGI [13]: > 100 µM
GI50 [14]: 1.71 µM
TGI [14]: 4.63 µM
GI50 [15]: 4.16 µM
TGI [15]: 26.9 µM
GI50 [16]: 3.74 µM
TGI [16]: 14.1 µM
GI50 [17]: 2.02 µM
TGI [17]: 3.94 µM
GI50 [18]: 21.1 µM
TGI [18]: > 100 µM
GI50 [19]: 2.03 µM
TGI [19]: 4.29 µM
GI50 [20]: 47.1 µM
TGI [20]: > 100 µM
GI50 [21]: 7.77 µM
TGI [21]: 25.7 µM
GI50 [22]: 2.09 µM
TGI [22]: 4.36 µM
GI50 [23]: 11.1 µM
TGI [23]: 23.1 µM
GI50 [24]: 12.4 µM
TGI [24]: 49.5 µM
GI50 [25]: 20 µM
TGI [25]: 49 µM
GI50 [26]: 12.6 µM
TGI [26]: 30.1 µM
GI50 [27]: 1.96 µM
TGI [27]: 3.47 µM
GI50 [28]: 11.4 µM
TGI [28]: 25.8 µM
GI50 [29]: 1.99 µM
TGI [29]: 4.18 µM
GI50 [30]: 2.53 µM
TGI [30]: 6.1 µM
GI50 [31]: 3.87 µM
TGI [31]: 16.6 µM
GI50 [32]: 16.7 µM
TGI [32]: 36.3 µM
GI50 [33]: 2.58 µM
TGI [33]: 7.77 µM
GI50 [34]: 1.92 µM
TGI [34]: 5.61 µM
GI50 [35]: 0.429 µM
TGI [35]: 2.52 µM
GI50 [36]: 2.96 µM
TGI [36]: 10 µM
GI50 [37]: 1.78 µM
TGI [37]: 3.58 µM
GI50 [38]: 1.78 µM
TGI [38]: 3.45 µM
GI50 [39]: 4.34 µM
TGI [39]: 16.8 µM
GI50 [40]: 29.5 µM
TGI [40]: 95.1 µM
GI50 [41]: 15.9 µM
TGI [41]: > 100 µM
GI50 [42]: 20.5 µM
TGI [42]: 58.1 µM
GI50 [43]: 13.3 µM
TGI [43]: 37.7 µM
GI50 [44]: 3.38 µM
TGI [44]: 12.4 µM
GI50 [45]: 14.4 µM
TGI [45]: 33.1 µM
GI50 [46]: 3.01 µM
TGI [46]: 11.6 µM
GI50 [47]: 5.1 µM
TGI [47]: > 100 µM
GI50 [48]: 4.14 µM
TGI [48]: 18.4 µM

CCN1C(=O)CS/C1=N/NC(=O)C(O)(c1ccccc1)C1C=CC=CC1 (configuration not stated)
TGI [1]: > 10 µM
TGI [2]: > 10 µM
TGI [3]: > 10 µM
TGI [4]: > 10 µM
TGI [8]: > 10 µM
TGI [9]: > 10 µM
TGI [49]: > 10 µM
TGI [10]: > 10 µM
TGI [12]: > 10 µM
TGI [13]: > 10 µM
TGI [14]: > 10 µM
TGI [50]: > 10 µM
TGI [51]: > 10 µM
TGI [22]: > 10 µM
TGI [24]: > 10 µM
TGI [52]: > 10 µM
TGI [27]: > 10 µM
TGI [28]: > 10 µM
TGI [53]: > 10 µM
TGI [54]: > 10 µM
TGI [55]: > 10 µM
TGI [33]: > 10 µM
TGI [35]: > 10 µM
TGI [37]: > 10 µM
TGI [56]: > 10 µM
TGI [39]: > 10 µM
TGI [40]: > 10 µM
TGI [41]: > 10 µM
TGI [42]: > 10 µM
TGI [43]: > 10 µM
TGI [44]: > 10 µM
TGI [47]: > 10 µM
TGI [48]: > 10 µM

C=C(CNCCc1ccc(O)cc1)[C@@H]1CC[C@]2(CO)CC[C@]3(C)[C@H](CC[C@@H]4[C@@]5(C)CCC(N)C(C)(C)[C@@H]5CC[C@]43C)[C@@H]12 (some centres not stated)
GI50 [5]: 0.195 µM
TGI [5]: 0.517 µM
GI50 [6]: 1.7 µM
TGI [6]: 3.53 µM
GI50 [7]: 0.46 µM
TGI [7]: 1.81 µM
GI50 [8]: 1.66 µM
TGI [8]: 3.13 µM
GI50 [10]: 1.78 µM
TGI [10]: 3.19 µM
GI50 [11]: 1.83 µM
TGI [11]: 3.78 µM
GI50 [12]: 1.44 µM
TGI [12]: 2.95 µM
GI50 [13]: 1.64 µM
TGI [13]: 3.58 µM
GI50 [14]: 1.44 µM
TGI [14]: 4.04 µM
GI50 [15]: 1.44 µM
TGI [15]: 2.98 µM
GI50 [16]: 1.66 µM
TGI [16]: 3.3 µM
GI50 [50]: 1.69 µM
TGI [50]: 3.09 µM
GI50 [17]: 1.73 µM
TGI [17]: 3.3 µM
GI50 [18]: 1.11 µM
TGI [18]: 2.38 µM
GI50 [19]: 1.52 µM
TGI [19]: 3 µM
GI50 [51]: 1.51 µM
TGI [51]: 3.07 µM
GI50 [20]: 1.22 µM
TGI [20]: 2.53 µM
GI50 [22]: 1.75 µM
TGI [22]: 3.33 µM
GI50 [23]: 1.42 µM
TGI [23]: 2.76 µM
GI50 [25]: 0.0235 µM
TGI [25]: 1.39 µM
GI50 [26]: 1.56 µM
TGI [26]: 3.02 µM
GI50 [27]: 1.58 µM
TGI [27]: 3.09 µM
GI50 [28]: 0.917 µM
TGI [28]: 2.12 µM
GI50 [29]: 1.48 µM
TGI [29]: 2.96 µM
GI50 [30]: 1.73 µM
TGI [30]: 3.22 µM
GI50 [31]: 1.63 µM
TGI [31]: 2.98 µM
GI50 [54]: 0.915 µM
TGI [54]: 2.27 µM
GI50 [55]: 1.76 µM
TGI [55]: 3.28 µM
GI50 [57]: 1.56 µM
TGI [57]: 2.94 µM
GI50 [32]: 1.66 µM
TGI [32]: 3.36 µM
GI50 [33]: 1.08 µM
TGI [33]: 2.36 µM
GI50 [35]: 1.59 µM
TGI [35]: 3.1 µM
GI50 [37]: 1.52 µM
TGI [37]: 2.85 µM
GI50 [38]: 1.65 µM
TGI [38]: 3.1 µM
GI50 [56]: 0.28 µM
TGI [56]: 1.23 µM
GI50 [39]: 1.73 µM
TGI [39]: 3.36 µM
GI50 [40]: 1.84 µM
TGI [40]: 3.34 µM
GI50 [41]: 1.64 µM
TGI [41]: 3.3 µM
GI50 [42]: 1.24 µM
TGI [42]: 2.49 µM
GI50 [43]: 1.12 µM
TGI [43]: 2.49 µM
GI50 [45]: 1.76 µM
TGI [45]: 3.42 µM
GI50 [46]: 1.44 µM
TGI [46]: 2.79 µM
GI50 [47]: 1.79 µM
TGI [47]: 3.4 µM
GI50 [48]: 1.52 µM
TGI [48]: 3.03 µM

Reference: PubChem BioAssay (NCI)
